{"source": "patent US11827744B2", "about": "“Bottlebrush copolymers and uses thereof” (Massachusetts Institute of Technology, priority 2016, dated 2023)", "origin": "cited, not measured here", "key": {"[1]": {"conditions": "in vivo"}}, "data": [{"smiles": "CCc1c2c(nc3ccc(O)cc13)-c1cc3c(c(=O)n1C2)COC(=O)[C@]3(O)CC", "note": "[SN-38]", "values": [{"measurement": "circulation life-times", "setting": "[1]", "value": "short circulation life-times"}, {"measurement": "water solubility", "value": "low water solubility"}]}]}
